Biological target: HDM2 (truncated, residues 17 to 125, containing p53 binding surface) (Homo sapiens (Human), UniProt Q00987)
Experiment: HDM2 FRET assay (inhibition of binding of FITC labeled p53-site peptide to HDM2)
Description: IC50 DETERMINATIONS: Dose-response curves were plotted from the inhibition data, from 10 point serial dilutions of inhibitory compounds. Concentration of compound was plotted against em520/Cem495 ratio signal. To generate IC50 values, the dose-response curves were fitted to a standard sigmoidal curve and IC50 values were derived by nonlinear regression analysis.

Sequence of HDM2 (truncated, residues 17 to 125, containing p53 binding surface) (Q00987 17-125): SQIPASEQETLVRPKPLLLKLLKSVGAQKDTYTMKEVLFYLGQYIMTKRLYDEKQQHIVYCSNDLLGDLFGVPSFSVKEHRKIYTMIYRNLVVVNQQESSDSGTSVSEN

`C[C@H]1CC[C@H](Cn2c(N3CCO[C@H]4CCCC[C@H]43)nc3nc(-c4noc(=O)[nH]4)nc(-c4cncc(Cl)c4)c32)CC1` (racemic) [Example 16.131, 3-{6-(5-chloropyridin-3-yl)-7-[(trans-4-methylcyclohexyl)methyl]-8-[(cis)-octahydro-4H-1,4-benzoxazin-4-yl]-7H-purin-2-yl}-1,2,4-oxadiazol-5(4H)-one] gave an IC50 (Table 16) of 35 nM.

`Cc1nnc(C2CCCN2c2nc3nc(-c4noc(=O)[nH]4)nc(-c4cncc(Cl)c4)c3n2C[C@H]2CC[C@H](C)CC2)o1` (mixture of isomers) [Example 16.141, 3-{6-(5-chloropyridin-3-yl)-7-[(trans-4-methylcyclohexyl)methyl]-8-[2-(5-methyl-1,3,4-oxadiazol-2-yl)pyrrolidin-1-yl]-7H-purin-2-yl}-1,2,4-oxadiazol-5(4H)-one] showed an IC50 (Table 16) of 26.8 nM.

Work on `Cc1noc(C2CCCN2c2nc3nc(-c4noc(=O)[nH]4)nc(-c4cncc(Cl)c4)c3n2C[C@H]2CC[C@H](C)CC2)n1` (mixture of isomers) [Example 16.143, 3-{6-(5-chloropyridin-3-yl)-7-[(trans-4-methylcyclohexyl)methyl]-8-[2-(3-methyl-1,2,4-oxadiazol-5-yl)pyrrolidin-1-yl]-7H-purin-2-yl}-1,2,4-oxadiazol-5(4H)-one] yielded an IC50 (Table 16) of 1.48 nM.

For `Cc1noc(C2CCCN2c2nc3nc(C(=O)O)nc(-c4cncc(Cl)c4)c3n2C[C@H]2CC[C@H](C)CC2)n1` (mixture of isomers) [Example 16.145, 6-(5-chloropyridin-3-yl)-7-[(trans-4-methylcyclohexyl)methyl]-8-[2-(3-methyl-1,2,4-oxadiazol-5-yl)pyrrolidin-1-yl]-7H-purine-2-carboxylic acid], the IC50 (Table 16) was 3.92 nM.

Work on `Cc1noc(C2CCCN2c2nc3nc(-c4n[nH]c(=O)o4)nc(-c4cncc(Cl)c4)c3n2C[C@H]2CC[C@H](C)CC2)n1` (mixture of isomers) [Example 16.146, 5-{6-(5-chloropyridin-3-yl)-7-[(trans-4-methylcyclohexyl)methyl]-8-[2-(3-methyl-1,2,4-oxadiazol-5-yl)pyrrolidin-1-yl]-7H-purin-2-yl}-1,3,4-oxadiazol-2(3H)-one] yielded an IC50 (Table 16) of 3.04 nM.

`CO[C@H]1CCN(c2nc3nc(-c4n[nH]c(=O)o4)nc(-c4cncc(Cl)c4)c3n2C[C@H]2CC[C@H](C)CC2)[C@@H](C)C1` (racemic) [Example 16.154, 5-{6-(5-chloropyridin-3-yl)-8-[(cis)-4-methoxy-2-methylpiperidin-1-yl]-7-[(trans-4-methylcyclohexyl)methyl]-7H-purin-2-yl}-1,3,4-oxadiazol-2(3H)-one] showed an IC50 (Table 16) of 67.2 nM.

`CO[C@@H]1CCN(c2nc3nc(-c4n[nH]c(=O)o4)nc(-c4cncc(Cl)c4)c3n2C[C@H]2CC[C@H](C)CC2)[C@@H](C)C1` (racemic) [Example 16.155, 5-{6-(5-chloropyridin-3-yl)-8-[(trans)-4-methoxy-2-methylpiperidin-1-yl]-7-[(trans-4-methylcyclohexyl)methyl]-7H-purin-2-yl}-1,3,4-oxadiazol-2(3H)-one] showed an IC50 (Table 16) of 49.1 nM.

`COCCOc1cc(Cl)cc(-c2nc(-c3noc(=O)[nH]3)nc3nc(N4CCO[C@@H]5CCC[C@H]54)n(C[C@H]4CC[C@H](C)CC4)c23)c1` (racemic) [Example 16.160, 3-{6-[3-chloro-5-(2-methoxyethoxyl)phenyl]-8-[(trans)-hexahydrocyclopenta[b][1,4]oxazin-4(4aH)-yl]-7-[(trans-4-methylcyclohexyl)methyl]-7H-purin-2-yl}-1,2,4-oxadiazol-5(4H)-one] showed an IC50 (Table 16) of 21 nM.

For `Cc1ncc(Cl)cc1-c1nc(-c2noc(=O)[nH]2)nc2nc(N3CCO[C@@H]4CCC[C@H]43)n(C[C@H]3CC[C@H](C)CC3)c12` (racemic) [Example 16.164, 3-{6-(5-chloro-2-methylpyridin-3-yl)-8-[(trans)-hexahydrocyclopenta [b][1,4]oxazin-4(4aH)-yl]-7-[(trans-4-methylcyclohexyl)methyl]-7H-purin-2-yl}-1,2,4-oxadiazol-5(4H)-one], the IC50 (Table 16) was 2.09 nM.

Work on `C[C@H]1CC[C@H](Cn2c(C(O)C3CCCCC3)nc3nc(-c4noc(=O)[nH]4)nc(-c4cccc(Cl)c4)c32)CC1` (mixture of isomers) [Example 23.5, 3-{6-(3-chlorophenyl)-8-[cyclohexyl(hydroxy)methyl]-7-[(trans-4-methylcyclohexyl)methyl]-7H-purin-2-yl}-1,2,4-oxadiazol-5(4H)-one] yielded an IC50 (Table 23) of 7.17 nM.

With `C[C@H]1CC[C@H](Cn2c(C(O)C3CCCCC3)nc3nc(-c4n[nH]c(=O)o4)nc(-c4cccc(Cl)c4)c32)CC1` (mixture of isomers) [Example 23.7, 5-{6-(3-chlorophenyl)-8-[cyclohexyl(hydroxy)methyl]-7-[(trans-4-methylcyclohexyl)methyl]-7H-purin-2-yl}-1,3,4-oxadiazol-2(3H)-one] the IC50 (Table 23) was 20.2 nM.

`CC(O)(c1nc2nc(-c3noc(=O)[nH]3)nc(-c3cccc(Cl)c3)c2n1C[C@H]1CC[C@H](C)CC1)C1CCCCC1` (mixture of isomers) [Example 23.10, 3-{6-(3-chlorophenyl)-8-(1-cyclohexyl-1-hydroxyethyl)-7-[(trans-4-methylcyclohexyl)methyl]-7H-purin-2-yl}-1,2,4-oxadiazol-5(4H)-one] gave an IC50 (Table 23) of 15.6 nM.

In the case of `CC(O)(c1nc2nc(-c3n[nH]c(=O)o3)nc(-c3cccc(Cl)c3)c2n1C[C@H]1CC[C@H](C)CC1)C1CCCCC1` (mixture of isomers) [Example 23.11, 5-{6-(3-chlorophenyl)-8-(1-cyclohexyl-1-hydroxyethyl)-7-[(trans-4-methylcyclohexyl)methyl]-7H-purin-2-yl}-1,3,4-oxadiazol-2(3H)-one], the IC50 (Table 23) is reported as 214 nM.

Work on `COC(c1nc2nc(-c3n[nH]c(=O)o3)nc(-c3cccc(Cl)c3)c2n1C[C@H]1CC[C@H](C)CC1)C1CCCCC1` (mixture of isomers) [Example 23.15, 5-{6-(3-chlorophenyl)-8-[cyclohexyl(methoxy)methyl]-7-[(trans-4-methylcyclohexyl)methyl]-7H-purin-2-yl}-1,3,4-oxadiazol-2(3H)-one] yielded an IC50 (Table 23) of 23 nM.

With `COC(c1nc2nc(-c3n[nH]c(=O)o3)nc(-c3cccc(Cl)c3)c2n1C[C@H]1CC[C@H](C)CC1)C1CCOCC1` (mixture of isomers) [Example 23.16, 5-{6-(3-chlorophenyl)-8-[methoxy(tetrahydro-2H-pyran-4-yl)methyl]-7-[(trans-4-methylcyclohexyl)methyl]-7H-purin-2-yl}-1,3,4-oxadiazol-2(3H)-one] the IC50 (Table 23) was 12.3 nM.

Work on `COC(c1nc2nc(-c3noc(=O)[nH]3)nc(-c3cncc(Cl)c3)c2n1C[C@H]1CC[C@H](C)CC1)C1CCOCC1` (mixture of isomers) [Example 23.18, 3-{6-(5-chloropyridin-3-yl)-8-[methoxy(tetrahydro-2H-pyran-4-yl)methyl]-7-[(trans-4-methylcyclohexyl)methyl]-7H-purin-2-yl}-1,2,4-oxadiazol-5(4H)-one] yielded an IC50 (Table 23) of 24.1 nM.

In the case of `COC(c1nc2nc(-c3n[nH]c(=O)o3)nc(-c3cncc(Cl)c3)c2n1C[C@H]1CC[C@H](C)CC1)C1CCOCC1` (mixture of isomers) [Example 23.20, 5-{6-(5-chloropyridin-3-yl)-8-[methoxy(tetrahydro-2H-pyran-4-yl)methyl]-7-[(trans-4-methylcyclohexyl)methyl]-7H-purin-2-yl}-1,3,4-oxadiazol-2(3H)-one], the IC50 (Table 23) is reported as 27.6 nM.

Compound `COC(c1nc2nc(-c3n[nH]c(=O)o3)nc(-c3cncc(Cl)c3)c2n1C[C@H]1CC[C@H](C)CC1)C1CCCCC1` (mixture of isomers) [Example 23.22, 5-{6-(5-chloropyridin-3-yl)-8-[cyclohexyl(methoxy)methyl]-7-[(trans-4-methylcyclohexyl)methyl]-7H-purin-2-yl}-1,3,4-oxadiazol-2(3H)-one] has an IC50 (Table 23) of 12 nM.

`COC(c1nc2nc(-c3n[nH]c(=O)o3)nc(-c3cncc(Cl)c3)c2n1C[C@H]1CC[C@H](C)CC1)C1CCCC1` (mixture of isomers) [Example 23.23, 5-{6-(5-chloropyridin-3-yl)-8-[cyclopentyl(methoxy)methyl]-7-[(trans-4-methylcyclohexyl)methyl]-7H-purin-2-yl}-1,3,4-oxadiazol-2(3H)-one] gave an IC50 (Table 23) of 8.78 nM.

With `C[C@H]1CC[C@H](Cn2c(C(F)C3CCCCC3)nc3nc(-c4noc(=O)[nH]4)nc(-c4cccc(Cl)c4)c32)CC1` (mixture of isomers) [Example 23.29, 3-{6-(3-chlorophenyl)-8-[cyclohexyl(fluoro)methyl]-7-[(trans-4-methylcyclohexyl)methyl]-7H-purin-2-yl}-1,2,4-oxadiazol-5(4H)-one] the IC50 (Table 23) was 34.8 nM.

Compound `COC(C)(c1ncoc1C)c1nc2nc(-c3noc(=O)[nH]3)nc(-c3cccc(Cl)c3)c2n1C[C@H]1CC[C@H](C)CC1` (mixture of isomers) [Example 23.57, 3-{6-(3-chlorophenyl)-8-[1-methoxy-1-(5-methyl-1,3-oxazol-4-yl)ethyl]-7-[(trans-4-methylcyclohexyl)methyl]-7H-purin-2-yl}-1,2,4-oxadiazol-5(4H)-one] has an IC50 (Table 23) of 2.07 nM.

With `CC(F)(c1nc2nc(-c3n[nH]c(=O)o3)nc(-c3cncc(Cl)c3)c2n1C[C@H]1CC[C@H](C)CC1)C1CCCC1` (mixture of isomers) [Example 23.58, 5-{6-(5-chloropyridin-3-yl)-8-(1-cyclopentyl-1-fluoroethyl)-7-[(trans-4-methylcyclohexyl)methyl]-7H-purin-2-yl}-1,3,4-oxadiazol-2(3H)-one] the IC50 (Table 23) was 1.95 nM.

`COC(c1nc2nc(-c3noc(=O)[nH]3)nc(-c3cncc(Cl)c3)c2n1C[C@H]1CC[C@H](C)CC1)C1CCCC1` (mixture of isomers) [Example 23.61, 3-{6-(5-chloropyridin-3-yl)-8-[cyclopentyl(methoxy)methyl]-7-[(trans-4-methylcyclohexyl)methyl]-7H-purin-2-yl}-1,2,4-oxadiazol-5(4H)-one] was tested, and the IC50 (Table 23) was 4.64 nM.

For `COC(C)(c1nc2nc(-c3noc(=O)[nH]3)nc(-c3cncc(Cl)c3)c2n1C[C@H]1CC[C@H](C)CC1)C1CCCC1` (mixture of isomers) [Example 23.71, 3-{6-(5-chloropyridin-3-yl)-8-(1-cyclopentyl-1-methoxyethyl)-7-[(trans-4-methylcyclohexyl)methyl]-7H-purin-2-yl}-1,2,4-oxadiazol-5(4H)-one], the IC50 (Table 23) was 1.29 nM.
